Data on 19 compounds can be found in patent publication US10323018B2 (Millennium Pharmaceuticals, Inc., priority 2015, dated 2019).

pIC50: −log10 of the molar value.

The target in one test is hNAMPT protein (Homo sapiens (Human), UniProt P43490). Kind of test: NAMPT enzyme assay (TR-FRET/HTRF with BodiPY ligand). The class given is binding. The conditions noted are these: for inhibition at 1 µM: NAMPT inhibition at compound concentration 1 μM, read-out: Percent Inhibition; for pIC50: NAMPT inhibition, IC50 range class. A digest of the protocol: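 His-tagged hNAMPT with anti-6His-Tb, incubated with compound and BodiPY ligand for 1 h at rt in the dark, in Tris-HCl pH 7.5 buffer with DTT, NaCl, MgCl2 and Tween 20. TR-FRET measured with 320 nm excitation as the 520/486 nm emission ratio. IC50 fitted relative to DMSO controls.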

Another test has as its system PC3 cells. The experiment in a line: PC3 growth inhibition (Cell-titer glo, 72 hours). The conditions noted are these: Homo sapiens, PC-3, 72 h, read-out: Percent Viability, PC3 cells, compound concentration 1.667 μM, 72 hours. The class given is cell-based. A digest of the protocol: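 PC3 cells grown in RPMI1640 plated at 8×10^4 cells/ml, incubated overnight, then exposed to compound diluted in AIM serum-free medium for 72 h at 37 °C, 5% CO2. Luminescence by CellTiter-Glo relative to DMSO controls; % viability at single concentration, GI50 or LD50 from concentration-response curves.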

hNAMPT protein, sequence (P43490 whole entry): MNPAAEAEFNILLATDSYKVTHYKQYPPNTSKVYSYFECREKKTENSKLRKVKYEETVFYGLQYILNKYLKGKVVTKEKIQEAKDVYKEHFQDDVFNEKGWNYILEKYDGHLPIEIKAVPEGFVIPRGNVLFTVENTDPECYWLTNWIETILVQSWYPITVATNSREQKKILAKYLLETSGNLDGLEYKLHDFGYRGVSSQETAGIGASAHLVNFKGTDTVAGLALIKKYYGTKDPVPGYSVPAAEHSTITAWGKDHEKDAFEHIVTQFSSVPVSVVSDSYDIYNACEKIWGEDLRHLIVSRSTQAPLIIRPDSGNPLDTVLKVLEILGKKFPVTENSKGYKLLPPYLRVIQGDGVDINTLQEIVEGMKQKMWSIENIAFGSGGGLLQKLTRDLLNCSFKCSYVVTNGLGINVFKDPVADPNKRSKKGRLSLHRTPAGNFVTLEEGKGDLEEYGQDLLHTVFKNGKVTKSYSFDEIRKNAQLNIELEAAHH

Regarding `CCOc1cc(-c2ccc(F)cc2)nc2cc(C(=O)NCc3nc4cnccc4n3C)ccc12` [Compound I-178, 4-ethoxy-2-(4-fluorophenyl)-N-[(1-methyl-1H-imidazo[4,5-c]pyridin-2-yl)methyl]quinoline-7-carboxamide], at hNAMPT protein, the inhibition at 1 µM was 99% and the pIC50 was above 8.00. Further, the viability at 1.667 µM in the test on PC3 cells was determined as 2%.
For `CCOc1cc(OCC)c2ccc(C(=O)NCCCc3ncc[nH]3)cc2n1` [Compound I-61, N-(3-(1H-Imidazol-2-yl)propyl)-2,4-diethoxyquinoline-7-carboxamide], at hNAMPT protein, the inhibition at 1 µM is 99% and the pIC50 is above 8.00. The viability at 1.667 µM with PC3 cells turned out to be 2%.
Take `CCCc1nc(-c2ccc(Cl)cc2)nc2cc(C(=O)NCCCc3ncc[nH]3)ccc12` [Compound I-4, 2-(4-chlorophenyl)-N-[3-(1H-imidazol-2-yl)propyl]-4-propylquinazoline-7-carboxamide]: at hNAMPT protein, the inhibition at 1 µM was 99% and the pIC50 was above 8.00. In addition, the viability at 1.667 µM in the test with PC3 cells stood at 1%.
For `CCOc1cc(-c2ccc(F)cc2OC)nc2cc(C(=O)NCCCc3[nH]nnc3C)ccc12` [Compound I-106, 4-ethoxy-2-(4-fluoro-2-methoxyphenyl)-N-[3-(4-methyl-1H-1,2,3-triazol-5-yl)propyl]quinoline-7-carboxamide], in that order: 100%, 7.30 to 8.00 and 2%.
With `CCCc1nc(-c2ccc(F)cc2)nc2cc(C(=O)NCCCc3ncc[nH]3)ccc12` [Compound I-16, 2-(4-fluorophenyl)-N-[3-(1H-imidazol-2-yl)propyl]-4-propylquinazoline-7-carboxamide], at hNAMPT protein, the inhibition at 1 µM is 100% and the pIC50 is above 8.00. In the test with PC3 cells, the viability at 1.667 µM amounted to 0%.
The corresponding values for `CCOc1cc(-c2cc(OC)ncc2F)nc2cc(C(=O)NCCc3cnn[nH]3)ccc12` [Compound I-189, 4-ethoxy-2-(5-fluoro-2-methoxypyridin-4-yl)-N-[2-(1H-1,2,3-triazol-5-yl)ethyl]quinoline-7-carboxamide] are 74%, below 7.00 and above 99%.
As to `COCCOc1cc(-c2ccc(F)cc2)nc2cc(C(=O)NCCCc3ncn[nH]3)ccc12` [Compound I-124, N-(3-(4H-1,2,4-triazol-3-yl)propyl)-2-(4-fluorophenyl)-4-(2-methoxyethoxy)quinoline-7-carboxamide], on hNAMPT protein, the inhibition at 1 µM worked out at 92% and the pIC50 was 7.00 to 7.30. The viability at 1.667 µM with PC3 cells was 2%.
For the compound `CCOc1cc(-c2ccnc(OC)c2)nc2cc(C(=O)NCCCc3cnn[nH]3)ccc12` [Compound I-116, 4-ethoxy-2-(2-methoxypyridin-4-yl)-N-[3-(1H-1,2,3-triazol-5-yl)propyl]quinoline-7-carboxamide], at hNAMPT protein, the inhibition at 1 µM stood at 98% and the pIC50 was above 8.00. In the test on PC3 cells, the viability at 1.667 µM came to 2%.
On to `CCOc1cc(-c2cccnc2OC)nc2cc(C(=O)NCCCc3cnn[nH]3)ccc12` [Compound I-105, 4-ethoxy-2-(2-methoxypyridin-3-yl)-N-[3-(1H-1,2,3-triazol-5-yl)propyl]quinoline-7-carboxamide], for which, at hNAMPT protein, the inhibition at 1 µM came out at 100% and the negative logarithm of the IC50 (pIC50) was 7.30 to 8.00. The viability at 1.667 µM with PC3 cells amounted to 2%.
As for `CCCc1cc(-c2ccc(F)cc2)nc2cc(C(=O)NCCCc3ncn[nH]3)ccc12` [Compound I-171, 2-(4-fluorophenyl)-4-propyl-N-[3-(4H-1,2,4-triazol-3-yl)propyl]quinoline-7-carboxamide], at hNAMPT protein, the inhibition at 1 µM turned out to be 97% and the pIC50 is 7.30 to 8.00. In addition, in the test on PC3 cells, the viability at 1.667 µM is 2%.
For the compound `CCOc1cc(-c2cccnc2C)nc2cc(C(=O)NCCCc3nnc[nH]3)ccc12` [Compound I-213, 4-ethoxy-2-(2-methylpyridin-3-yl)-N-[3-(4H-1,2,4-triazol-3-yl)propyl]quinoline-7-carboxamide], on hNAMPT protein, the inhibition at 1 µM came out at 87% and the pIC50 is below 7.00. Also, the viability at 1.667 µM with PC3 cells is 1%.
Regarding `O=C(NCCCc1nnc[nH]1)c1ccc2c(-n3ccnc3)cc(-c3ccc(F)cc3)nc2c1` [Compound I-148, 2-(4-fluorophenyl)-4-(1H-imidazol-1-yl)-N-[3-(4H-1,2,4-triazol-3-yl)propyl]quinoline-7-carboxamide], on hNAMPT protein, the inhibition at 1 µM was 99% and the pIC50 is above 8.00. Further, the viability at 1.667 µM in the test on PC3 cells came out at 1%.
The corresponding values for `CCOc1cc(-c2ccnc(C)c2)nc2cc(C(=O)NCCc3cnn[nH]3)ccc12` [Compound I-181, 4-ethoxy-2-(2-methylpyridin-4-yl)-N-[2-(1H-1,2,3-triazol-5-yl)ethyl]quinoline-7-carboxamide] are 86%, below 7.00 and 9%.
The corresponding values for `CCOc1cc(-c2cc(C)cnc2OC)nc2cc(C(=O)NCCCc3nnc[nH]3)ccc12` [Compound I-159, 4-ethoxy-2-(2-methoxy-5-methylpyridin-3-yl)-N-[3-(4H-1,2,4-triazol-3-yl)propyl]quinoline-7-carboxamide] are 99%, 7.30 to 8.00 and 2%.
`CCOc1cc(-c2cnn(C)c2)nc2cc(C(=O)NCCCc3nnc[nH]3)ccc12` [Compound I-206, 4-ethoxy-2-(1-methyl-1H-pyrazol-4-yl)-N-[3-(4H-1,2,4-triazol-3-yl)propyl]quinoline-7-carboxamide]: at hNAMPT protein, the inhibition at 1 µM was 66% and the pIC50 is below 7.00. In addition, the viability at 1.667 µM in the test on PC3 cells was found to be 2%.
On to `CCCc1nc(-c2ccc(Cl)cc2)nc2cc(C(=O)NCc3nc4ccncc4[nH]3)ccc12` [Compound I-9, 2-(4-chlorophenyl)-N-(3H-imidazo[4,5-c]pyridin-2-ylmethyl)-4-propylquinazoline-7-carboxamide], for which, on hNAMPT protein, the inhibition at 1 µM came out at 93% and the pIC50 is above 8.00. Also, in the test with PC3 cells, the viability at 1.667 µM turned out to be 1%.
For `CCOc1cc(-c2ccc(F)cc2)nc2cc(C(=O)NCc3nc4cnccc4[nH]3)ccc12` [Compound I-14, 4-ethoxy-2-(4-fluorophenyl)-N-(1H-imidazo[4,5-c]pyridin-2-ylmethyl)quinoline-7-carboxamide], in that order: above 99%, above 8.00 and 1%.
Consider `CCOc1cc(-c2cc(F)cnc2OC)nc2cc(C(=O)NCCCc3nnc[nH]3)ccc12` [Compound I-161, 4-ethoxy-2-(5-fluoro-2-methoxypyridin-3-yl)-N-[3-(4H-1,2,4-triazol-3-yl)propyl]quinoline-7-carboxamide], for which, at hNAMPT protein, the inhibition at 1 µM stood at 97% and the pIC50 was 7.30 to 8.00. Also, the viability at 1.667 µM in the test on PC3 cells is 2%.
The corresponding values for `O=C(NCCCc1ncc[nH]1)c1ccc2c(C3CC3)nc(-c3ccc(Cl)cc3)nc2c1` [Compound I-31, 2-(4-chlorophenyl)-4-cyclopropyl-N-[3-(1H-imidazol-2-yl)propyl]quinazoline-7-carboxamide] are 97%, 7.30 to 8.00 and 1%.
